# Test results taken from patent US20250129101A1, “Compound, Pharmaceutical Composition Comprising the Same and Method for Treating Cancer Using the Same” (NATIONAL TSING HUA UNIVERSITY, priority 2023, published 2025).
# Key:
# [1] = system: 4T1 S1 cells; assay: Colony formation assay, 4T1 S1 cells; type: cell-based, mouse; settings: 1 μM 7S9 with 400 nM paclitaxel
# Protocol: (§1) To assess the long-term survival of breast cancer cell lines following the treatment of KIF2C knockdown or inhibition, the cells trypsinized into single-cell suspension were homogeneously seeded in 6-well cell culture plates at a density of 5000 cells per dish, supplemented with 2× complete medium (50% 4×DMEM, 20% FBS, 2% penicillin-streptomycin, ddH2O, and 2× glutaMAX™), agarose (0.6% for bottom agar layer; 0.3% for top cell layer), ddH2O, and DMEM. After incubation for 24 hr, cells were treated with indicated drugs, such as DMSO, KIF2C inhibitors, or chemotherapy drugs, and then cultured at 37° C. incubator in an atmosphere of humidified air with 5% CO2 for a further 14-30 days. When the cell colonies grew to appropriate sizes, the culture mediums were replaced with PBS for washing. After that, the plates were stained with 10% crystal violet and analyzed using Image J.
# [2] = system: 4T1 R4 cells; assay: Colony formation assay, 4T1 R4 cells; type: cell-based, mouse; settings: 1 μM 7S9 with 400 nM paclitaxel
# Protocol: as §1
# [3] = system: 4T1 cells; assay: In vivo tumor growth inhibition, 4T1 syngeneic model; design: species or system mouse; settings: 4T1 tumors, BALB/c mice
# Protocol: The mice were housed at the National Health Research Institute (NHRI) Animal Center in accordance with the Institutional Animal Care and Use Committee procedures and guidelines. The 4T1-derived cells, including 4T1, 4T1 R4, and 4T1 R8, used for implantation were harvested during log phase growth and resuspended in phosphate-buffered saline. Each mouse was injected s.c. in the right flank with 5×10^5 cells. After tumor size reached 60-100 mm 3 (D1), mice were divided into groups and received treatment with vehicle or different compounds alone or in combinations. Tumor size, in mm 3, was measured twice per week and calculated from Tumor volume=(w 2×1)/2, where w=width and 1=length in mm of the tumor. The values of tumor size were expressed as mean±SEM.
# [4] = system: MDA-MB-231 cells; assay: Cell validation: cytotoxicity in MDA-MB-231 cells (CellTiter-Glo); type: cell-based
# In short: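 MDA-MB-231 cells were seeded at 2000 cells/well and exposed to compounds for the specified number of days. Medium was then replaced with a 1:1 CellTiter-Glo reagent/serum-supplemented DMEM mix for 10 min, and viability was read as luminescence, proportional to living cell number.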
# [5] = system: 4T1 R8 cells; assay: Colony formation assay, 4T1 R8 cells; type: cell-based, mouse; settings: 1 μM 7S9 with 400 nM paclitaxel
# Protocol: as §1
# [6] = system: 4T1 R8 cells; assay: Time-lapse imaging of mitotic progression, 4T1 R8 cells; type: cell-based, mouse; settings: 1 μM 7S9 and 400 nM paclitaxel
# Protocol: (§2) To investigate the role of KIF2C in cell cycle progression, 4T1 cells were cultured in the 4-well chamber slide with about 50% confluence. The culture medium was replaced with a CO2-independent medium (Gibco) supplemented with 10% fetal bovine serum (Biological Industries) and 1% penicillin-streptomycin (Biowest). Then, each well of the chamber slide was treated with indicated drugs, such as DMSO, KIF2C inhibitors, or chemotherapy drugs. After that, the chamber slide was maintained in the microscope stage incubator with the supplement of humidified air with 5% CO2 at 37° C. Multiple-positional time-lapse imaging was performed using an automated Leica DM16000 inverted microscope equipped with HCX PL FL 20×/0.4 and EMCCD camera (Andor Luca R, Belfast, UK). Sequential differential interference contrast (DIC) images of cells obtained at indicated intervals were further analyzed using Metamorph software (Molecular Devices).
# [7] = system: 4T1 R4 cells; assay: Time-lapse imaging of mitotic progression, 4T1 R4 cells; type: cell-based, mouse; settings: 1 μM 7S9 and 400 nM paclitaxel
# Protocol: as §2
# [8] = molecular target: T1, KIF2C (Homo sapiens, UniProt Q99661); assay: In vitro microtubule depolymerization assay; type: biochemical; settings: 50 μM 7S9, recombinant KIF2C and ATP, 30 min
# T1 construct: KIF2C (216-598 a.a.); 6xHis (C); made in house; host or cells: E. coli BL21 (DE3), pET-28a
# T1 sequence (Q99661 216-598): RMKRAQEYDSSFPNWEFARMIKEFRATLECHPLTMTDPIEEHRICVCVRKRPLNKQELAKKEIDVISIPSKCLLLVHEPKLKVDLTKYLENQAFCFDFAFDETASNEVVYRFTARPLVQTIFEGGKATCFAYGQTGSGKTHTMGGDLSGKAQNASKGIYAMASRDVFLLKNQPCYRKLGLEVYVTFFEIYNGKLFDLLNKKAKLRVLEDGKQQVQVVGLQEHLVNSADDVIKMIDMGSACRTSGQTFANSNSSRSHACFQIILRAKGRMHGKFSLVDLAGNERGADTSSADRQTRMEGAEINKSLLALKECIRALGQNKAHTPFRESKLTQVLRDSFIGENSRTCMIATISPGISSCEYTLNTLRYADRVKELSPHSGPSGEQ
# Protocol: Additional purified KIF2C (0.5 ng/μl), ATP (0.75 mM), and 7S9 (50 μM) were included in a typical 10 μL reaction, as indicated, loaded onto a p-Slide (Ibidi, 81506) and incubated at 37° C. for 30 min. Images were acquired using the Leica DMI6000 microscope with an HCX PL FL 20×/0.4 and Andor Neo sCMOS camera, which were all processed by MetaMorph software (Molecular Devices, LLC. San Jose, CA, USA).
# [9] = system: HeLa cells expressing H2B-mCherry and eGFP-tubulin; assay: Live-cell imaging of intracellular microtubule distribution; type: cell-based
# Protocol: For the microtubule distribution analysis, HeLa cell line stably expressing H2B-mCherry and eGFP-tubulin (a kind gift from Anthony A. Hyman, Max-Planck-Institute for Molecular Cell Biology and Genetics, Dresden, Germany) were treated with KIF2C inhibitors (10 μM DHTP or 10 μM 7S9) during imaging. Live-cell imaging was conducted on a Nikon T1 inverted fluorescence microscope (Nikon) with a 60× oil objective (Nikon), a Prime camera (Photometrics), and 37° C., 5% CO2 heat stage (Live Cell Instrument). Microtubule morphological changes were imaged at 3-min intervals. Images were obtained using ImageJ software processed with Gaussian Blur to remove the noise.
smiles,measurement,setting,value
"CCN1CCN(C(=O)COc2ccc(/C=c3\sc4n(c3=O)C(c3ccc(Cl)cc3)C(C(=O)OC(C)C)=C(C)N=4)cc2)CC1.O=C(O)/C=C\C(=O)O (centres unmarked) [7S9 (133), isopropyl (Z)-5-(4-chlorophenyl)-2-(4-(2-(4-ethylpiperazin-1-yl)-2-oxoethoxy)benzylidene)-7-methyl-3-oxo-2,3-dihydro-5H-thiazolo[3,2-a]pyrimidine-6-carboxylate maleate]","colony formation, combined treatment (in words)",[1],did not further suppress colony formation
same,"colony formation, combined treatment (in words)",[2],suppression of colony formation was detected only with combined treatment of 7S9 and paclitaxel
same,tumor growth inhibition,"[3]; 7S9 50 mg/kg intraperitoneally, 5on/2off two cycles",20.3%
same,"tumor growth inhibition, combination",[3]; 7S9 50 mg/kg with paclitaxel 5 mg/kg,62.6%
same,cytotoxicity on MDA-MB-231 cells (in words),[4]; 72 hr,showed cytotoxicity
same,Cell validation (IC50),[4]; cytotoxicity in MDA-MB-231 cells,+ + +
same,"colony formation, combined treatment (in words)",[5],suppression of colony formation was detected only with combined treatment of 7S9 and paclitaxel
same,"mitotic defects, combined treatment (in words)",[6],induced significant defects in mitosis
same,"mitotic defects, combined treatment (in words)",[7],induced significant defects in mitosis
same,KIF2C-mediated microtubule depolymerization (in words),[8],completely blocked
same,intracellular microtubule distribution phenotype (in words),[9],puncta formation of tubulins in the cytoplasm
